Results: US12649750B2, “Macrocyclic compounds, compositions, and methods of using thereof” (Sionna Therapeutics Inc., priority 2022, dated 2026)

Tests used:
NBD1 = target: T1, NBD1 (Homo sapiens, UniProt P13569); test: Aggregation analysis using differential static light scattering (DSLS), thermal stability of NBD1 (ΔTagg); type: binding; settings: ΔTagg versus DMSO control, NBD1 0.2 mg/ml
T1 construct: Purified recombinant NBD1 was produced using previously described methods; made in house
Method in brief: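 Differential static light scattering read from 25° C. to 70° C. every 0.5° C., ramp 1° C./min, on recombinant NBD1 (0.2 mg/ml; Tris/NaCl/MgCl2 buffer with 2 mM ATP, 2 mM DTT, pH 7.6, 1% glycerol) plus compound. Reported ΔTagg subtracts averaged DMSO Tagg from inflection-point Tagg; categories A ≤5, B >5-10, C >10-25° C.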

CFTR = target: T2, CFTR (Homo sapiens, UniProt P13569, DEL508-508); test: TECC24 AUC fold over DMSO @10 μM, CFTR-mediated transepithelial chloride transport in CF-HBE cells; type: cell-based; settings: test agent AUC divided by DMSO vehicle AUC, primary CF-HBE cells, ΔF508 homozygous donor, 48 hours incubation
T2 construct: Primary human bronchial epithelial cells from a ΔF508 homozygous CF donor; host or cells: primary human bronchial epithelial cells (CF-HBE), ΔF508 homozygous donor
Method in brief: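 Primary ΔF508-homozygous CF bronchial epithelial cells on inserts were incubated 48 h at 36.5 °C with compound in IL-13-containing medium. VT and TEER were then recorded in current-clamp mode (pH 7.4 HEPES bath) with benzamil 10 μM, forskolin 10 μM, then CFTR inhibitor-172 20 μM. The IEQ AUC between forskolin and inhibitor was divided by vehicle AUC.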

T1 sequence (P13569 423-646 limits assumed): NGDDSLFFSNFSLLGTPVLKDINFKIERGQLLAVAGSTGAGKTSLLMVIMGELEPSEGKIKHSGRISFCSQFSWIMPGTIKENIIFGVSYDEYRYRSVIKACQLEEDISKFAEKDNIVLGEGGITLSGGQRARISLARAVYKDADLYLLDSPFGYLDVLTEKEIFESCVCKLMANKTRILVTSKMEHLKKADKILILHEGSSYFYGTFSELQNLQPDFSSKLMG
T2 sequence (P13569 with tags, fused parts or gaps DEL508-508): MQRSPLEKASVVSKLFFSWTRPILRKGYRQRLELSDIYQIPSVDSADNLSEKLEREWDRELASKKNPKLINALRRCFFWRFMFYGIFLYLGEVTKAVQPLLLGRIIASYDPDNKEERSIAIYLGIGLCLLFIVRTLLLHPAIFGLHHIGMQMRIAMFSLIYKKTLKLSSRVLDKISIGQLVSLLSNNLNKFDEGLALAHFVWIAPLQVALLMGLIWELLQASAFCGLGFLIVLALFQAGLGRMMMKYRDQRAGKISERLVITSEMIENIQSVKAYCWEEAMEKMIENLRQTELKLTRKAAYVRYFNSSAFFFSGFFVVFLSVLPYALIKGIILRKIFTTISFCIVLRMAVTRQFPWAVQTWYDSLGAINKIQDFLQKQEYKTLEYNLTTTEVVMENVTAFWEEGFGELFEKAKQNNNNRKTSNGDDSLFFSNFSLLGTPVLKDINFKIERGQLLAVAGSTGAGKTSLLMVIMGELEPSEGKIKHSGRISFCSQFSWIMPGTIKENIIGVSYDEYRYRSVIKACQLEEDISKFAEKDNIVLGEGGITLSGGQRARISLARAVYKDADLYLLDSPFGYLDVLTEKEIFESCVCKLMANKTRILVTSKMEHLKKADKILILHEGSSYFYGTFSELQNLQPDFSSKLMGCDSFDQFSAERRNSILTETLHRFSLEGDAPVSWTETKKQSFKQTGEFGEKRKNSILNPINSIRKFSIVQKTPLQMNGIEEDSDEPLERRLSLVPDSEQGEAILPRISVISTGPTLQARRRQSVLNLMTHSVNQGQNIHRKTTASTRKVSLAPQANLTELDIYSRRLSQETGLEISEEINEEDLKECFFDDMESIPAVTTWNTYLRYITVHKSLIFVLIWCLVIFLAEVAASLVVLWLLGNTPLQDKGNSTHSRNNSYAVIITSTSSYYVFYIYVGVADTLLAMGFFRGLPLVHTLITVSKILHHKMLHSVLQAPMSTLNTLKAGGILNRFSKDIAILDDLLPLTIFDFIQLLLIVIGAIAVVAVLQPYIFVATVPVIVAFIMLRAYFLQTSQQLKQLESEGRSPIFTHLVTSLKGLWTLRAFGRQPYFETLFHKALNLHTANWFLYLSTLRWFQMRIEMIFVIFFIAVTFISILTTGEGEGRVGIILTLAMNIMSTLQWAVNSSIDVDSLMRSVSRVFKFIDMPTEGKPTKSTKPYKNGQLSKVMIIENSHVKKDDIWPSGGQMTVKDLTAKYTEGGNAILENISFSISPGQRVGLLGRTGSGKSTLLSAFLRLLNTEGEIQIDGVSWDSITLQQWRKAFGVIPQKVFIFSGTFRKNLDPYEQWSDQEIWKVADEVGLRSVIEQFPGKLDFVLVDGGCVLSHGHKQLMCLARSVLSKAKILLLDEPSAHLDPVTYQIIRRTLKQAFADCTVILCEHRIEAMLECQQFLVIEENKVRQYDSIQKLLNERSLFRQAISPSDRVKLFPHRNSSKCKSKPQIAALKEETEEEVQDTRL

| SMILES | DSLS 3D (100 μM ΔT) (NBD1) | TECC (AUC, 10 μM) (CFTR) |
| --- | --- | --- |
| Cn1nc2nc1-c1cc(ccc1F)Oc1c(F)cc3[nH]ccc3c1CCS(=O)(=O)CC(C)(C)CCCC2(C)c1cccc(CC(C(=O)O)C(F)(F)F)c1 (centres unmarked) [Compound 168, 2-[[3-(22,28-Difluoro-3,6,10,10-tetramethyl-12,12-dioxo-24-oxa-12λ6-thia-3,4,19,30-tetrazapentacyclo[23.3.1.12,5.015,23.016,20]triaconta-1(29),2(30),4,15,17,20,22,25,27-nonaen-6-yl)phenyl]methyl]-3,3,3-trifluoro-propanoic acid] | C (a value greater than 10 °C and less than or equal to 25 °C is marked “C”) | B (a value between 12-20 is marked “B”) |
| Cc1cn2nc1-c1cccc(c1)C(=O)c1c(F)cc3[nH]ccc3c1CCS(=O)(=O)CC(C)(C)CCCC2c1cccc(C[C@H](C)C(=O)O)c1 (stereo partly drawn) [Compound 170, (2S)-3-[3-(22-Fluoro-3,10,10-trimethyl-12,12,24-trioxo-12λ6-thia-5,19,30-triazapentacyclo[23.3.1.12,5.015,23.016,20]triaconta-1(29),2(30),3,15,17,20,22,25,27-nonaen-6-yl)phenyl]-2-methyl-propanoic Acid] | A (an ΔTagg value less than or equal to 5 °C is marked “A”) | A (a TECC value less than 12 is marked “A”) |
| Cn1nc2nc1-c1cc(ccc1F)Oc1c(F)cc3[nH]ccc3c1CCS(=O)(=O)CC(C)(C)CCCC2(C)c1cccc(/C=C2\CCOC2=O)c1 (centres unmarked) [Compound 172, (3E)-3-[[3-(22,28-Difluoro-3,6,10,10-tetramethyl-12,12-dioxo-24-oxa-12λ6-thia-3,4,19,30-tetrazapentacyclo[23.3.1.12,5.015,23.016,20]triaconta-1(29),2(30),4,15,17,20,22,25,27-nonaen-6-yl)phenyl]methylene]tetrahydrofuran-2-one] | B (a value above 5 °C and less than or equal to 10 °C is marked “B”) | A (a TECC value less than 12 is marked “A”) |
| Cn1nc2nc1-c1cc(ccc1F)Oc1c(F)cc3[nH]ccc3c1CCS(=O)(=O)CC(C)(C)CCCC2(C)c1cccc(CC2CCOC2=O)c1 (centres unmarked) [Compound 173, 3-[[3-(22,28-Difluoro-3,6,10,10-tetramethyl-12,12-dioxo-24-oxa-12λ6-thia-3,4,19,30-tetrazapentacyclo[23.3.1.12,5.015,23.016,20]triaconta-1(29),2(30),4,15,17,20,22,25,27-nonaen-6-yl)phenyl]methyl]tetrahydrofuran-2-one] | B (a value above 5 °C and less than or equal to 10 °C is marked “B”) | C (a value between 20 and 80 is marked “C”) |
| Cn1nc2nc1-c1cc(ccc1F)Oc1c(F)cc3[nH]ccc3c1CCS(=O)(=O)CC(C)(C)CCCC2(C)c1cccc(CC2NC(=O)NC2=O)c1 (centres unmarked) [Compound 175, 5-[[3-(22,28-Difluoro-3,6,10,10-tetramethyl-12,12-dioxo-24-oxa-12λ6-thia-3,4,19,30-tetrazapentacyclo[23.3.1.12,5.015,23.016,20]triaconta-1(29),2(30),4,15,17,20,22,25,27-nonaen-6-yl)phenyl]methyl]imidazolidine-2,4-dione] | C (a value greater than 10 °C and less than or equal to 25 °C is marked “C”) | A (a TECC value less than 12 is marked “A”) |
| Cn1nc2nc1-c1cc(ccc1F)Oc1c(F)cc3[nH]ccc3c1CCS(=O)(=O)CC(C)(C)CCCC2(C)c1cccc(C(O)C2NC(=O)NC2=O)c1 (centres unmarked) [Compound 176, 5-[[3-(22,28-Difluoro-3,6,10,10-tetramethyl-12,12-dioxo-24-oxa-12λ6-thia-3,4,19,30-tetrazapentacyclo[23.3.1.12,5.015,23.016,20]triaconta-1(29),2(30),4,15,17,20,22,25,27-nonaen-6-yl)phenyl]-hydroxy-methyl]imidazolidine-2,4-dione] | C (a value greater than 10 °C and less than or equal to 25 °C is marked “C”) | B (a value between 12-20 is marked “B”) |
| CCOC(=O)CC(O)c1cccc(C2(C)CCCC(C)(C)CS(=O)(=O)CCc3c(c(F)cc4[nH]ccc34)Oc3ccc(F)c(c3)-c3nc2nn3C)c1 (centres unmarked) [Compound 177, Ethyl 3-[3-(22,28-difluoro-3,6,10,10-tetramethyl-12,12-dioxo-24-oxa-12λ6-thia-3,4,19,30-tetrazapentacyclo[23.3.1.12,5.015,23.016,20]-triaconta-1(29),2(30),4,15,17,20,22,25,27-nonaen-6-yl)phenyl]-3-hydroxy-propanoate] | B (a value above 5 °C and less than or equal to 10 °C is marked “B”) | C (a value between 20 and 80 is marked “C”) |
| Cn1nc2nc1-c1cc(ccc1F)Oc1c(F)cc3[nH]ccc3c1CCS(=O)(=O)CC(C)(C)CCCC2(C)c1cccc(C(O)CC(=O)O)c1 (centres unmarked) [Compound 178, 3-[3-(22,28-Difluoro-3,6,10,10-tetramethyl-12,12-dioxo-24-oxa-12λ6-thia-3,4,19,30-tetrazapentacyclo[23.3.1.12,5.015,23.016,20]triaconta-1(29),2(30),4,15,17,20,22,25,27-nonaen-6-yl)phenyl]-3-hydroxy-propanoic Acid] | C (a value greater than 10 °C and less than or equal to 25 °C is marked “C”) | C (a value between 20 and 80 is marked “C”) |
| C[C@H](Cc1cccc([C@@]2(C)CCCC(C)(C)CS(=O)(=O)CCc3c(ccc4[nH]ccc34)Oc3ccc(F)c(c3)-c3nc2nn3C)c1)C(=O)O [Compound 190, (2R)-3-[3-[(6R)-28-fluoro-3,6,10,10-tetramethyl-12,12-dioxo-24-oxa-12λ6-thia-3,4,19,30-tetrazapentacyclo[23.3.1.12,5.015,23.016,20]triaconta-1(29),2(30),4,15,17,20,22,25,27-nonaen-6-yl]phenyl]-2-methyl-propanoic Acid] | C (a value greater than 10 °C and less than or equal to 25 °C is marked “C”) | B (a value between 12-20 is marked “B”) |
| C[C@@H](Cc1cccc([C@@]2(C)CCCC(C)(C)CS(=O)(=O)CCc3c(c(F)cc4[nH]ccc34)Oc3ccc(F)c(c3)-c3csc2n3)c1)C(=O)O [Compound 191, (2S)-3-[3-[(6R)-22,28-Difluoro-6,10,10-trimethyl-12,12-dioxo-24-oxa-4,12λ6-dithia-19,30-diazapentacyclo[23.3.1.12,5.015,23.016,20]triaconta-1(29),2,5(30),15,17,20,22,25,27-nonaen-6-yl]phenyl]-2-methyl-propanoic Acid] | C (a value greater than 10 °C and less than or equal to 25 °C is marked “C”) | B (a value between 12-20 is marked “B”) |
| C[C@@H](Cc1cccc([C@@]2(C)CCCC(C)(C)CS(=O)(=O)CCc3c(c(F)cc4[nH]ccc34)Oc3ccc(F)c(c3)-c3coc2n3)c1)C(=O)O [Compound 192, (2S)-3-[3-[(6R)-22,28-difluoro-6,10,10-trimethyl-12,12-dioxo-4,24-dioxa-12λ6-thia-19,30-diazapentacyclo[23.3.1.12,5.015,23.016,20]triaconta-1(29),2,5(30),15,17,20,22,25,27-nonaen-6-yl]phenyl]-2-methyl-propanoic Acid] | C (a value greater than 10 °C and less than or equal to 25 °C is marked “C”) | C (a value between 20 and 80 is marked “C”) |
| COC(=O)[C@H](C)Cc1csc(C2(C)CCCC(C)(C)CS(=O)(=O)CCc3c(c(F)cc4[nH]ccc34)Oc3ccc(F)c(c3)-c3nc2nn3C)c1 (stereo partly drawn) [Compound 193, Methyl (2R)-3-[5-(22,28-difluoro-3,6,10,10-tetramethyl-12,12-dioxo-24-oxa-12λ6-thia-3,4,19,30-tetrazapentacyclo[23.3.1.12,5.015,23.016,20]triaconta-1(29),2(30),4,15,17,20,22,25,27-nonaen-6-yl)-3-thienyl]-2-methyl-propanoate] | B (a value above 5 °C and less than or equal to 10 °C is marked “B”) | C (a value between 20 and 80 is marked “C”) |
| C[C@H](Cc1cccc([C@@]2(C)CCCC(C)(C)CS(=O)(=O)CCc3c(c(F)cc4[nH]ccc34)Oc3ccc(F)c(c3)C3=NN=C2S3)c1)C(=O)O [Compound 194, (2R)-3-[3-[(6R)-22,28-difluoro-6,10,10-trimethyl-12,12-dioxo-24-oxa-12λ6,30-dithia-3,4,19-triazapentacyclo[23.3.1.12,5.015,23.016,20]triaconta-1(29),2,4,15,17,20,22,25,27-nonaen-6-yl]phenyl]-2-methyl-propanoic Acid] | A (an ΔTagg value less than or equal to 5 °C is marked “A”) | B (a value between 12-20 is marked “B”) |
